Experimental data taken from PMC7470102, “Synthesis, anticancer evaluation and molecular docking studies of new benzimidazole- 1,3,4-oxadiazole derivatives as human topoisomerase types I poison” (Journal of Enzyme Inhibition and Medicinal Chemistry, 2020).

Assays:
[1] = test system: A549 (lung carcinoma cell line); test: MTT cytotoxicity assay, A549; assay type: cell-based; conditions: Homo sapiens, A549, MTT assay, read-out: IC50 against A549
Method: (§1) The anticancer activity of compounds 5a–5o were screened according to the MTT assays. The MTT assays were performed as previously described[32]^,[33]. Anticancer activity of final compounds was assessed against five different cancer cell lines A549 (lung carcinoma cell line), HeLa (cervical cell line), MCF-7 (human breast adenocarcinoma cell line), HepG2 (human liver carcinoma cell line) and C6 (rat glioma cell line) cell lines as well as NIH3T3 (mouse embryo fibroblast cell line). Doxorubicin and Hoechst 33342 were used as the reference drugs in the MTT assays.
(§2) The benzimidazole-1,3,4-oxadiazole derivatives (5a-5o) were tested their cytotoxic effects in vitro using five cancer cell line A549 (lung carcinoma cell line), HeLa (cervical cell line), MCF-7 (human breast adenocarcinoma cell line), HepG2 (human liver carcinoma cell line) and C6 (rat glioma cell line) cell lines as well as NIH3T3 (mouse embryo fibroblast cell line). Doxorubicin and Hoechst 33342 were used for this study as a reference drugs.

[2] = test system: MCF-7 (human breast adenocarcinoma cell line); test: MTT cytotoxicity assay, MCF-7; assay type: cell-based; conditions: Homo sapiens, MCF7, MCF-7 cell line, read-out: IC50 against MCF-7
Method: as §1, §2

[3] = test system: C6 (rat glioma cell line); test: MTT cytotoxicity assay, C6; assay type: cell-based; conditions: Rattus norvegicus, read-out: IC50 against C6
Method: as §1, §2

[4] = test system: HepG2 (human liver carcinoma cell line); test: MTT cytotoxicity assay, HepG2; assay type: cell-based; conditions: Homo sapiens, read-out: IC50 against HepG2
Method: as §1, §2

[5] = test system: HeLa (cervical cell line); test: MTT cytotoxicity assay, HeLa; assay type: cell-based; conditions: Homo sapiens, read-out: IC50 against HeLa
Method: as §1, §2

[6] = test system: NIH3T3 (mouse embryo fibroblast cell line); test: MTT cytotoxicity assay, NIH3T3 healthy cells; assay type: cell-based; conditions: Mus musculus, read-out: IC50 against NIH3T3
Method: The anticancer activity of compounds 5a–5o were screened according to the MTT assays. The MTT assays were performed as previously described[32]^,[33]. Anticancer activity of final compounds was assessed against five different cancer cell lines A549 (lung carcinoma cell line), HeLa (cervical cell line), MCF-7 (human breast adenocarcinoma cell line), HepG2 (human liver carcinoma cell line) and C6 (rat glioma cell line) cell lines as well as NIH3T3 (mouse embryo fibroblast cell line). Doxorubicin and Hoechst 33342 were used as the reference drugs in the MTT assays. It is crucial that an anticancer agent affects the cancer cell line but having minimal or no side-effect on healthy cells. For this purpose, the cytotoxic effects of the active compounds on the NIH3T3 cell line were investigated (Table 2).

HepG2 cells = test: DNA synthesis inhibition assay (BrdU), HepG2; assay type: cell-based, human; conditions: 5a at 5.695 µg/mL, doxorubicin at 16.482 µg/mL
Method: (§3) The BrdU cell proliferation method was performed to analyse the effects of the active compounds on proliferation of cancer cells. Cancer cells were seeded into the 96-well plates at a density of 1 × 10^4 cells. Compounds were added into the each well at three different concentrations (IC50/2, IC50 and 2xIC50) and the plates were incubated for 24 h. At the end of the incubation period, BrdU solution was added and cells were reincubated for 2 h at 37 °C. Anti-BrdU-POD ([…]) was added and the mixture was incubated for 90 min. Microplates were washed with PBS for three times. After adding substrate solution, the mixture was incubated for 15 min. OD of the wells were determined at 492 nm. Proliferation of control cells was assessed as 100% and growth inhibition % of cells, treated with test compounds and […] were calculated.
(§4) According to the MTT assay, compound 5n for A549 cell line; compounds 5a, 5d, 5e, 5o for MCF-7 cell line; compound 5k for C6 cell line; compound 5a for HepG2 cell line; compounds 5b, 5l and 5n for HeLa cell line were selected for the DNA synthesis inhibition assay. A549, C6, MCF-7, HepG2 and HeLa cells were incubated with three different concentrations (IC50/2, IC50, and […]) of the compounds for 24 and 48 h time periods. […] Doxorubicin was used as positive control.

MCF-7 cell line = test: Flow cytometric analysis (Annexin V/PI), MCF-7; assay type: cell-based, human; conditions: MCF-7 cells
Method: (§5) Death pathway of the carcinogenic cell lines was detected by Annexin V-FITC Apoptosis Detection Kit (BD, Pharmingen) as reported previously described. […] FCS Express software was used to display the percent of normal and apoptotic cells at different stages. […] The experiments were carried out in triplicates.
(§6) Annexin V/PI staining on tested cancer cells treated with the active compounds was performed to investigate induction of apoptosis. […] According to the MTT assay, compound 5n for A549 cell line; compounds 5a, 5d, 5e, 5o for MCF-7 cell line; compound 5k for C6 cell line; compound 5a for HepG2 cell line; compounds 5b, 5l and 5n for HeLa cell line were selected for the flow cytometric analysis. Furthermore, flow cytometry studies were performed for reference drug doxorubicin. Flow cytometric analysis diagrams of tested compounds and doxorubicin at IC50/2, IC50, and 2xIC50 concentrations on cancer cells were presented in Figures 7–11.

HepG2 cell line = test: Flow cytometric analysis (Annexin V/PI), HepG2; assay type: cell-based, human; conditions: at IC50 concentrations, 24 h incubation
Method: as §5, §6

Topoisomerase I = target: T1, Topoisomerase I (Homo sapiens, UniProt P11387); test: DNA topoisomerase I assay (relaxation of supercoiled plasmid DNA, agarose gel); assay type: biochemical; conditions: agarose gel electrophoresis, camptothecin positive control, Figure 12
T1 construct: purchased TopoGen TG1018-2
T1 sequence (P11387 1-765): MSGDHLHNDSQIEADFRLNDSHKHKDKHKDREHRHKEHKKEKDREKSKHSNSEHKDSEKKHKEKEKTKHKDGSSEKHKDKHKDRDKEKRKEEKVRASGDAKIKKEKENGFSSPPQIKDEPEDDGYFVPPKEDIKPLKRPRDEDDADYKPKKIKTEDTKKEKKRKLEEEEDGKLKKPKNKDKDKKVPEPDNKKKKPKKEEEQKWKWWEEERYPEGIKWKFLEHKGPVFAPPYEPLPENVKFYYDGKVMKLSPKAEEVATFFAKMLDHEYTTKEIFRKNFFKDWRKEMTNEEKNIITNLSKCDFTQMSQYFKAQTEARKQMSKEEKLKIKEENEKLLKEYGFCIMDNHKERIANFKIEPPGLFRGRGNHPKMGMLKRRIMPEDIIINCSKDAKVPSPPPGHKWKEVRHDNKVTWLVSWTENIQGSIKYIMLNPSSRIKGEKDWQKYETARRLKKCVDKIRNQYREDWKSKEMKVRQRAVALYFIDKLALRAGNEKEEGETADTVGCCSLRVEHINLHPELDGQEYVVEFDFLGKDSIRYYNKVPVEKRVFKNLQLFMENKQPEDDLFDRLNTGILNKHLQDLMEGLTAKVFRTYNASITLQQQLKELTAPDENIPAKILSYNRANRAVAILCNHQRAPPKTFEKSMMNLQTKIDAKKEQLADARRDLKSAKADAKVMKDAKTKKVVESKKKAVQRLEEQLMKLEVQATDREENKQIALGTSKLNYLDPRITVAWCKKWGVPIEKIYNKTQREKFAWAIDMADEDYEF
Method: The topoisomerase I inhibition activities of final compounds were measured as relaxation of supercoiled plasmid DNA using agarose gel electrophoresis and camptothecin was used as a positive control. The assay was carried out in a final volume of 20 µl reaction volume containing 2 µl of 10xTGS Buffer, 6 µl water, 2 µl supercoiled plasmid DNA, 2 µl test compound, 2 µl of Top1, 2 ul 10% SDS, 2 µl proteinase K, 2 µl DNA loading dye. After incubation of reaction mixtures at 37 °C for 30 min, electrophoresis was done on a 1% agarose gel at a potential 50 V for 75 min using 1xTAE buffer.
To determine whether the DNA intercalation properties of compounds 5a, 5b, 5d, 5e, 5k, 5l, 5n and 5o might result in Topo I inhibition, agarose gel electrophores is assay was performed to evaluate the Topo I inhibitory activity of them via agarose-gel electrophoresis and CPT was used as the positive control. The TopoGEN Topoisomerase I Drug Screening Kit were optimised and implemented to accomplish this goal.
In a previous studies, it was said that the compounds poisoning topoisomerase caused the formation of nick bands in such gel appearances, while the formation of Supercoiled bands was said to be caused by catalytic inhibitors that bound to either DNA or enzyme[40]^,[41].

MCF7 cells = test: DNA synthesis inhibition assay (BrdU), MCF7; assay type: cell-based, human; conditions: 48 h, 5e at 7.318 µg/mL, doxorubicin at 10.525 µg/mL
Method: as §3, §4

HeLa cells = test: DNA synthesis inhibition assay (BrdU), HeLa; assay type: cell-based; conditions: 48 h, 5b 0.698, 5l 0.224, 5n 0.205, doxorubicin 14.280 µg/mL
Method: as §3, §4

HeLa cell line = test: Flow cytometric analysis (Annexin V/PI), HeLa; assay type: cell-based
Method: as §5, §6

A549 cells = test: DNA synthesis inhibition assay (BrdU), A549; assay type: cell-based; conditions: 48 h
Method: as §3, §4

A549 cell line = test: Flow cytometric analysis (Annexin V/PI), A549; assay type: cell-based; conditions: at IC50 concentrations
Method: as §5, §6

C6 cell line = test: Flow cytometric analysis (Annexin V/PI), C6; assay type: cell-based, rat; conditions: at IC50 concentrations
Method: as §5, §6

Compound | IC50 [1] | IC50 [2] | IC50 [3] | IC50 [4] | IC50 [5] | IC50 [6] | % DNA synthesis inhibition (HepG2 cells; 24 h) | % DNA synthesis inhibition (HepG2 cells; 48 h) | percentage of apoptosis (early + late apoptotic cells) (MCF-7 cell line) | percentage of apoptotic cells (HepG2 cell line) | Topo I inhibition activity (Topoisomerase I) | % DNA synthesis inhibition (MCF7 cells) | % DNA synthesis inhibition (HeLa cells) | percentage of apoptotic cells (HeLa cell line) | % DNA synthesis inhibition (A549 cells; 5n at 5.39 µg/mL, doxorubicin at 6.21 µg/mL) | % DNA synthesis inhibition (A549 cells; 5n at 7.39 µg/mL, doxorubicin at 12.42 µg/mL) | % DNA synthesis inhibition (A549 cells; 5n at 14.77 µg/mL, doxorubicin at 24.84 µg/mL) | inhibition at 14.28 µg/mL (HeLa cells; Homo sapiens) | percentage of apoptotic cells (A549 cell line) | percentage of apoptotic cells (C6 cell line)
CN1CCN(C(=O)CSc2nnc(-c3ccc4nc(-c5ccc(O)cc5)[nH]c4c3)o2)CC1 [5a, 2-((5–(2-(4-Hydroxyphenyl)-1H-benzo[d]imidazol-6-yl)-1,3,4-oxadiazol-2-yl)thio)-1–(4-methyl-piperazin-1-yl) -ethane-1-on] | 43.3 ± 1.79 µM | 5.7 ± 0.254 µM | 15.6 ± 0.615 µM | 5.7 ± 0.283 µM | 14 ± 0.65 µM | 39.1 ± 1.94 µM | 60.89% | 72.05% | 15.4% | 13.2% | potent topo I inhibition activity | – | – | – | – | – | – | – | – | –
O=C(CSc1nnc(-c2ccc3nc(-c4ccc(O)cc4)[nH]c3c2)o1)N1CCN(c2ncccn2)CC1 [5e, 2-((5–(2-(4-Hydroxyphenyl)-1H-benzo[d]imidazol-6-yl)-1,3,4-oxadiazol-2-yl)thio)-1-(4-(pyrimidine-2-yl)-piperazin-1-yl)-ethane-1-on] | – | 7.32 ± 0.352 µM | ≥ 100 µM | ≥ 100 µM | ≥ 100 µM | 54 ± 2.68 µM | – | – | 13.1% | – | potent topo I inhibition activity | 93.81% | – | – | – | – | – | – | – | –
CCN1CCN(C(=O)CSc2nnc(-c3ccc4nc(-c5ccc(O)cc5)[nH]c4c3)o2)CC1 [5b, 2-((5–(2-(4-Hydroxyphenyl)-1H-benzo[d]imidazol-6-yl)-1,3,4-oxadiazol-2-yl)thio)-1–(4-ethyl-piperazin-1-yl) -ethane-1-on] | ≥ 100 µM | ≥ 100 µM | ≥ 100 µM | ≥ 100 µM | 0.698 ± 0.032 µM | 944.4 ± 7.62 µM | – | – | – | – | potent topo I inhibition activity | – | 49.70% | – | – | – | – | – | – | –
CCOc1ccc(-c2nc3ccc(-c4nnc(SCC(=O)N5CCN(CC)CC5)o4)cc3[nH]2)cc1 [5l, 2-((5-(2-(4-Ethoxyphenyl)-1H-benzo[d]imidazol-6-yl)-1,3,4-oxadiazol-2-yl)thio)-1–(4-ethyl-piperazin-1-yl)-ethane-1-on] | 31 ± 1.53 µM | ≥ 100 µM | ≥ 100 µM | ≥ 100 µM | 0.224 ± 0.011 µM | 113 ± 5.47 µM | – | – | – | – | potent topo I inhibition activity | – | 56.01% | 8.6% | – | – | – | – | – | –
COc1cccc2c1C(=O)c1c(O)c3c(c(O)c1C2=O)C[C@@](O)(C(=O)CO)C[C@@H]3O[C@H]1C[C@H](N)[C@H](O)[C@H](C)O1 [Dox., doxorubicin, reference compound] | 12.4 ± 0.521 µM | 10.5 ± 0.472 µM | 28.7 ± 1.23 µM | 16.5 ± 0.804 µM | 14.3 ± 0.704 µM | 1111 ± 8.25 µM | 42.80% | 74.22% | 12.7% | 9.4% | – | 84.60% | – | – | 62.78% | 73.43% | 81.22% | 66.5% | 19.2% | 13.7%
